In US10202420B2, “Methods and compositions for treatment of cartilage and disc tissue pathologies” (THE ROYAL INSTITUTION FOR ADVANCEMENT OF LEARNING/MCGILL …, priority 2013, dated 2019):

How the values were obtained:
Format in all cases: cell-based
[1] = test system: bovine discs with trypsin-induced degeneration; experiment: Proteoglycan (GAG, DMMB) concentration in bovine disc organ culture with trypsin-induced degeneration; conditions: degenerated bovine discs, 2 weeks post Link N 1-8 treatment
Text: (§1) The largest first 3-4 caudal discs were isolated from the tails of 24- to 30-month-old steers, as described previously (21,22). Briefly, the tails were dissected free of skin, muscles and ligaments, and pedicles for each segment were removed. The bone and the adjacent calcified part of the cartilaginous endplate were removed, so that the surface of the disc was soft and flexible without detectable calcified tissue. After the discs were rinsed in PBS supplemented with 1,000 U/mL penicillin, 1,000 μg/mL streptomycin and 0.25 μg/mL fungizone (GIBCO, Burlington, Canada), they were preconditioned for 3 days in sterile 80 mL specimen containers (STARPLEX Scientific, Etobicoke, Canada) containing 50 mL culture medium. (DMEM with 2 mM Glutamax and 25 mM Hepes, supplemented with 5% FBS, 100 U/mL penicillin, 100 μg/mL streptomycin, 50 μg/mL L-ascorbate). […] The number of MSCs used was based on a study by Liebscher et al (23), which measured the cell density of healthy human discs. […]
(§2) The remaining nucleus pulposus (NP) tissue was collected and the wet weight was recorded (21). […]
Sulfated glycosaminoglycans (GAGs) were quantified in tissue extracts by a modified dimethyl methylene blue (DMMB) dye-binding assay (25,26). […]

[2] = test system: human nucleus pulposus (NP) cells; experiment: Proteoglycan synthesis by 35SO4 incorporation, cells in alginate beads; conditions: 48 h
Protocol: (§3) Human thoracolumbar spines were retrieved through the Transplant Quebec organ donation program. Discs were obtained from 7 donors, 1 male and 6 female, with a mean age of 29.6 years and an age range of 16 to 47 years (Table 1). Donors having had recent chemotherapy, radiation therapies to the spine, or significant long-standing paralysis were excluded from the study. Spine retrieval was performed within 8 h of death. Discs with calcification and loss of disc height were not included in the study. All procedures were approved by the institutional review board of the Montreal General Hospital.
(§4) Human and bovine IVDs were separated from the adjoining vertebral body and divided into NP and AF for bovine IVDs and NP and inner annulus fibrosus (iAF) for human IVDs. Tissue from the human outer annulus fibrosus (oAF) was not used for cell isolation in this study. Cells were enzymatically isolated from each region as previously described (63). Briefly, NP and AF tissues were dissected into approximately 2-mm thick pieces, washed twice in PBS containing 50 μg/mL gentamicin, […] and 0.25 μg/mL fungizone, then digested with 0.2% pronase for 1 h, followed by collagenase type IA at 0.01% for NP and 0.04% for AF tissue for 4 h in serum free DMEM.
(§5) To compare the metabolic response to the various Link N peptides, freshly isolated human and bovine cells from NP and AF regions were embedded in 1.2% alginate beads, as previously described (65). Cells in alginate beads were cultured at 37° C., 5% CO2 in DMEM, containing 4.5 g/L glucose and supplemented with 10% FCS, 25 mmol/L HEPES, 50 μg/mL gentamicin sulphate, 0.25 μg/mL fungizone, 50 μg/mL L-ascorbate, and 2 mmol/L GlutaMAX. The beads were stabilized for 7 days and cell viability was assessed by Live/Dead® assay prior to further treatment. 5 beads per well were then cultured in 48 well plates in the presence of equimolar concentrations of either Link N (1 μg/mL), R-Link N (1 μg/mL), S-Link N (1 μg/mL), Link N 1-8 (0.5 μg/mL) or Link N 9-16 (0.5 μg/mL) in 0.5 mL DMEM. 25 μCi/mL ^35SO4 was added to the medium to allow assessment of proteoglycan synthesis (66). In addition, beads were exposed for 48 h to IL-1β (10 ng/mL) alone, or to a combination of peptides and IL-1β (51). At the end of the culture period, medium was collected and dialyzed exhaustively against miliQ water at […] (Spectra/Por® 3), followed by cold chase with 1M MgSO4 for 2 h to remove any remaining unincorporated ^35SO4. The ^35SO4 incorporation was measured using a beta scintillation counter (Beckman Coulter LS6500, Beckman Coulter, Mississauga, Canada).

[3] = test system: human inner annulus fibrosus (iAF) cells; experiment: as above; conditions: human AF (iAF) cells, 48 h
Protocol: as §3, §4, §5

aggrecan core protein = experiment: Aggrecan core protein by Western blot, bovine disc organ culture; conditions: degenerated bovine discs, 2 weeks post Link N 1-8 treatment
Text: as §1, with “L-ascorbate). Degeneration was induced by a single injection of 100 μg trypsin (Sigma-Aldrich) dissolved in 75 μL PBS into the center of the disc using a 28 G½ needle (21) The needle was placed on top of the disc to measure the distance needed to reach the center and was then inserted to the same depth.” for “L-ascorbate).”
as §2

type II collagen = experiment: Type II collagen by Western blot, bovine disc organ culture; conditions: degenerated bovine discs, 2 weeks post Link N 1-8 treatment
Text: as §1, with “L-ascorbate). Degeneration was induced by a single injection of 100 μg trypsin (Sigma-Aldrich) dissolved in 75 μL PBS into the center of the disc using a 28 G½ needle (21) The needle was placed on top of the disc to measure the distance needed to reach the center and was then inserted to the same depth.” for “L-ascorbate).”
as §2

[4] = test system: bovine annulus fibrosus (AF) cells; experiment: Proteoglycan synthesis by 35SO4 incorporation, cells in alginate beads; conditions: 48 h
Protocol: as §4, §5

[5] = test system: bovine nucleus pulposus (NP) cells; experiment: as above; conditions: 48 h
Protocol: as §4, §5

[6] = 16-mer peptides 1 μg/mL, 8-mer peptides 0.5 μg/mL, vs medium alone
[7] = IL-1β 10 ng/mL, vs IL-1-containing medium

**Q.** Which results are given for “DHLSDNYT [Link N 1-8, Link-N first 8 peptide residues]”?
**A.** proteoglycan synthesis (proteoglycan concentration in the discs) [1]: statistically significant increase; proteoglycan synthesis (35SO4 incorporation) [2, 6]: significant increase; proteoglycan synthesis (35SO4 incorporation) in the presence of IL-1β [2, 7]: significantly increased response; proteoglycan synthesis (35SO4 incorporation) [3, 6]: significant increase; proteoglycan synthesis (35SO4 incorporation) in the presence of IL-1β [3, 7]: significantly increased response; aggrecan expression (aggrecan core protein): statistically significant increase; type II collagen expression (type II collagen): statistically significant increase; proteoglycan synthesis (35SO4 incorporation) [4, 6]: statistically significant increase; proteoglycan synthesis (35SO4 incorporation) in the presence of IL-1β [4, 7]: significantly induced proteoglycan production to the same extent as native Link N; proteoglycan synthesis (35SO4 incorporation) [5, 6]: statistically significant increase; proteoglycan synthesis (35SO4 incorporation) in the presence of IL-1β [5, 7]: significantly induced proteoglycan production to the same extent as native Link N
